# Assay: Characterisation of lipid nanoparticle formulations (size, PDI, mRNA encapsulation)
# Format: physicochemical
# Settings: lipid nanoparticle with FFL mRNA; Process A; Cationic Lipid:DMG-PEG2000:Cholesterol:DOPE 40:5:25:30 mol%; N/P 4
# Procedure: One exemplary process for lipid nanoparticle formulation is Process A of WO 2018/089801 (see, e.g., Example 1 and FIG. 1 of WO 2018/089801). Process A (“A”) relates to a conventional method of encapsulating mRNA by mixing mRNA with a mixture of lipids, without first pre-forming the lipids into lipid nanoparticles. In an exemplary process, an ethanol lipid solution and an aqueous buffered solution of mRNA were prepared separately. A solution of mixture of lipids (cationic lipid, helper lipids, zwitterionic lipids, PEG lipids etc.) was prepared by dissolving lipids in ethanol. The mRNA solution was prepared by dissolving the mRNA in citrate buffer. The mixtures were then both heated to 65° C. prior to mixing. Then, these two solutions were mixed using a pump system. In some instances, the two solutions were mixed using a gear pump system. In certain embodiments, the two solutions were mixing using a ‘T’ junction (or “Y” junction). The mixture was then purified by diafiltration with a TFF process. The resultant formulation concentrated and stored at 2-8° C. until further use. A second exemplary process for lipid nanoparticle formulation is Process B of WO 2018/089801 (see, e.g., Example 2 and the FIGURE of WO 2018/089801). Process B (“B”) refers to a process of encapsulating messenger RNA (mRNA) by mixing pre-formed lipid nanoparticles with mRNA. A range of different conditions, such as varying temperatures (i.e., heating or not heating the mixture), buffers, and concentrations, may be employed in Process B. In an exemplary process, lipids dissolved in ethanol and citrate buffer were mixed using a pump system. […] The resultant formulation mixture was empty lipid nanoparticles in citrate buffer containing alcohol. The formulation was then subjected to a TFF purification process wherein buffer exchange occurred. The resulting suspension of pre-formed empty lipid nanoparticles was then mixed with mRNA using a pump system. […] The lipid nanoparticle formulations of Table 5 were prepared by either Process A or B. Each formulation comprised mRNA encoding firefly luciferase protein (FFL mRNA) and lipids (Cationic Lipid: DMG-PEG2000; Cholesterol: DOPE) in the mol % ratios set forth in Table 5.
SMILES,Encapsulation % [%],PDI,Size (nm)
CCCCCCCCC(O)CN(CCCC(=O)Oc1c(OC)cc(C(=O)OCCCN(C)C)cc1OC)CC(O)CCCCCCCC (stereo not drawn) [Compound 1],94,0.235,47.6
CCCCCCCCCCC(O)CN(CCCC(=O)Oc1c(OC)cc(C(=O)OCCCN(C)C)cc1OC)CC(O)CCCCCCCCCC (stereo not drawn) [Compound 2],94,0.251,48.9
CCCCCCCCC(O)CN(CCCCC(=O)Oc1c(OC)cc(C(=O)OCCCN(C)C)cc1OC)CC(O)CCCCCCCC (stereo not drawn) [Compound 3],89,0.207,40.3
CCCCCCCCCCCCC(O)CN(CCCCC(=O)Oc1c(OC)cc(C(=O)OCCCN(C)C)cc1OC)CC(O)CCCCCCCCCCCC (stereo not drawn) [Compound 6],73,0.208,47.0
CCCCCCCCC(O)CN(CCCCC(=O)Oc1c(OC)cc(C(=O)OCCCN(C)C)cc1OC)CC(O)CCCCCCCC (stereo not drawn) [Compound 9],79,0.213,42.3

# Further lines, results first:
Encapsulation % [%],PDI,Size (nm),SMILES
91,0.198,41.4,CCCCCCCCCCC(O)CN(CCCCC(=O)Oc1c(OC)cc(C(=O)OCCCN(C)C)cc1OC)CC(O)CCCCCCCCCC (stereo not drawn) [Compound 4]
97,0.249,48.4,CCCCCCCCCCCCC(O)CN(CCCC(=O)Oc1c(OC)cc(C(=O)OCCCN(C)C)cc1OC)CC(O)CCCCCCCCCCCC (stereo not drawn) [Compound 5]
95,0.429,64.2,CCCCCCC/C=C\C/C=C\CCCCC(O)CN(CCCC(=O)Oc1c(OC)cc(C(=O)OCCCN(C)C)cc1OC)CC(O)CCCC/C=C\C/C=C\CCCCCCC (stereo not drawn) [Compound 7]
95,0.193,43.3,CCCCCCCCCCC(O)CN(CCCC(=O)Oc1c(OC)cc(/C=C/C(=O)OCCCN(C)C)cc1OC)CC(O)CCCCCCCCCC (stereo not drawn) [Compound 8]
94,0.213,43.3,CCCCCCCCCCC(O)CN(CCCCC(=O)Oc1c(OC)cc(/C=C/C(=O)OCCCN(C)C)cc1OC)CC(O)CCCCCCCCCC (stereo not drawn) [Compound 10]
98,0.214,44.0,CCCCCCCCCCCCC(O)CN(CCCCC(=O)Oc1c(OC)cc(/C=C/C(=O)OCCCN(C)C)cc1OC)CC(O)CCCCCCCCCCCC (stereo not drawn) [Compound 11]
96,0.173,65.1,CCCCCCCCCCC(O)CN(CCCC(=O)Oc1ccc(C(=O)OCCCN(C)C)cc1CC)CC(O)CCCCCCCCCC (stereo not drawn) [Compound 12]

# Source: patent US20230150921A1, “PHENOLIC ACID LIPID BASED CATIONIC LIPIDS” (Translate Bio, Inc., priority 2020, published 2023)
